{"source": "paper PMC5848165", "about": "(Toxins, 2018)", "key": {"[1]": {"tested_on": "TTX-R sodium channels from rat DRG neurons", "test": "Whole-cell patch clamp, TTX-R sodium currents in rat DRG neurons", "format": "cell-based, rat (Sprague-Dawley)", "details": "1 µM synthetic JZTX-34; 100 nM TTX in external solution; −10 mV from −80 mV"}, "[2]": {"tested_on": "Nav1.1", "test": "Whole-cell patch clamp, Nav1.1 in HEK293 cells", "format": "cell-based, rat", "details": "1 µM, −10 mV from −80 mV", "text": "Nine sodium channel subtypes have been identified and classified as TTX-S (Nav1.1–Nav1.4, Nav1.6, and Nav1.7) or TTX-R types (Nav1.5, Nav1.8, and Nav1.9). […] However, the subtype selectivity of JZTX-34 on the subtype of sodium channel is still unknown. In this work, effects of JZTX-34 on VGSC subtypes (Nav1.1–Nav1.8) were examined. Nav1.1–Nav1.7 were transfected into HEK293 cells and Nav1.8 currents were expressed in ND cells. Inward sodium currents were elicited by a 50 ms depolarizing potential to −10 mV from a holding potential of −80 mV every 5 s. […] No effects on other sodium channel subtypes were found (Nav1.1, Nav1.2, Nav1.4–Nav1.6, and Nav1.8) (Figure S2). […]\n(§1) The HEK293T cells were maintained in standard culture conditions (5% CO2 and 37 °C). […] After culturing for 36–72 h, cells with obvious green fluorescence were selected for sodium currents recordings the internal solution for sodium currents recording that contained (in mM) 140 CsF, 5 NaCl, 10 HEPES, 3 Na2-ATP, and 10 EGTA. […]\n(§2) Sodium currents were recorded from DRG, HEK293, and ND cells by the whole-cell patch-clamp technique at 25 °C. […] Experiments date were acquired from whole-cell Axon 700B patch clamp amplifier (Molecular Devices, Sunnyvale, CA, USA) and analyzed by the program Clampfit10.0 (Molecular Devices, Sunnyvale, CA, USA) and Sigmaplot. […]"}, "[3]": {"tested_on": "Nav1.6", "test": "Whole-cell patch clamp, Nav1.6 in HEK293 cells", "format": "cell-based", "details": "1 µM, −10 mV from −80 mV", "text": "Nine sodium channel subtypes have been identified and classified as TTX-S (Nav1.1–Nav1.4, Nav1.6, and Nav1.7) or TTX-R types (Nav1.5, Nav1.8, and Nav1.9). […] However, the subtype selectivity of JZTX-34 on the subtype of sodium channel is still unknown. In this work, effects of JZTX-34 on VGSC subtypes (Nav1.1–Nav1.8) were examined. Nav1.1–Nav1.7 were transfected into HEK293 cells and Nav1.8 currents were expressed in ND cells. Inward sodium currents were elicited by a 50 ms depolarizing potential to −10 mV from a holding potential of −80 mV every 5 s. […] No effects on other sodium channel subtypes were found (Nav1.1, Nav1.2, Nav1.4–Nav1.6, and Nav1.8) (Figure S2).\nas §1, with “°C). Then, 10% fetal bovine serum was added to Dulbecco’s modified Eagle’s medium.” for “°C).”\nas §2"}, "[4]": {"tested_on": "chimera #2, Nav1.7 (Nav1.5-DIV-S3-S4)", "test": "Whole-cell patch clamp, chimera #2 in HEK293 cells", "format": "cell-based, human Nav1.7 / rat Nav1.5", "details": "n = 5, −10 mV from −80 mV", "text": "Many animal toxins alter activation or inactivation of sodium channels by binding to the S3–S4 regions of channels, which are probably the external linkers or voltage sensors of sodium channels. α-Scorpion toxins slow down fast-inactivation of sodium channels by binding to the extracellular linker loop of DIVS3-S4 (neurotoxin site 3). Meanwhile, β-scorpion toxins that interact with DIIS3-S4 linker enhance the activation of sodium channels by trapping DII voltage sensor in an activated state. As Nav1.5 channel is resistant to the inhibition of JZTX-34, we investigated the binding site of JZTX-34 to Nav1.7 by constructing chimeric channels between Nav1.5 and Nav1.7. […]\nas §1, §2"}}, "note": "Residues, ends and D or L forms follow the SMILES beside them.", "data": [{"smiles": "CC(C)C[C@@H]1NC(=O)[C@H](Cc2c[nH]c3ccccc23)NC(=O)[C@H](CCC(=O)O)NC(=O)[C@H](CCCNC(=N)N)NC(=O)[C@@H](NC(=O)[C@H](C)N)CSSC[C@@H]2NC(=O)[C@@H]3CSSC[C@@H](C(=O)N[C@H](C(=O)N[C@@H](Cc4c[nH]c5ccccc45)C(=O)N[C@@H](CC(=O)O)C(=O)N[C@@H](Cc4c[nH]c5ccccc45)C(=O)N[C@H](C(=O)N[C@H](C(=O)O)C(C)C)[C@@H](C)O)C(C)C)NC(=O)[C@H](Cc4c[nH]cn4)NC(=O)[C@H](Cc4ccc(O)cc4)NC(=O)[C@@H]4CCCN4C(=O)[C@H](Cc4c[nH]c5ccccc45)NC(=O)[C@H](CCCCN)NC(=O)[C@H](CCCCN)NC(=O)[C@H](CCCNC(=N)N)NC(=O)[C@H](CSSC[C@H](NC(=O)CNC(=O)CNC1=O)C(=O)N[C@@H](CO)C(=O)N[C@@H](CCCCN)C(=O)N[C@@H](CC(=O)O)C(=O)N[C@@H](C)C(=O)N[C@@H](CC(=O)O)C(=O)N3)NC(=O)[C@H](CCC(=O)O)NC(=O)[C@H](CC(C)C)NC(=O)[C@H](Cc1c[nH]cn1)NC(=O)[C@H](C)NC2=O", "note": "[JZTX-34, Jingzhaotoxin-34] (HELM PEPTIDE1{A.C.R.E.W.L.G.G.C.S.K.D.A.D.C.C.A.H.L.E.C.R.K.K.W.P.Y.H.C.V.W.D.W.T.V}$PEPTIDE1,PEPTIDE1,2:R3-16:R3|PEPTIDE1,PEPTIDE1,9:R3-21:R3|PEPTIDE1,PEPTIDE1,15:R3-29:R3$$$V2.0; N-terminus and C-terminus assumed)", "values": [{"measurement": "effect on TTX-R sodium currents", "setting": "[1]", "result": "had no effect on TTX-R sodium currents"}, {"measurement": "effect on Nav1.1 currents", "setting": "[2]", "result": "No effects"}, {"measurement": "effect on Nav1.6 currents", "setting": "[3]", "result": "No effects"}, {"measurement": "inhibition of chimera #2 currents", "setting": "[4]; 1 µM", "result": "43.6 ± 4.5", "unit": "%"}, {"measurement": "inhibition of chimera #2 currents", "setting": "[4]; 10 µM", "result": "76.3 ± 3.6", "unit": "%"}]}]}
